Measurements: US4840950A, “4-arylcarbonyl-1-[(4-morpholinyl)-lower-alkyl]-1H-indoles” (Sterling Drug Inc., priority 1987, dated 1989)

Assays:
[1] = rotorod performance test (R.R.), neurotoxicity and CNS impairment, as ratio to Ach; conditions: mouse, in vivo; ratio of rotorod (R.R.):Ach ED50's; Ach ED50 on oral administration
Excerpt: (§1) The test procedures used to determine the analgesic activity of the compounds have been described in detail in the prior art and are as follows: The acetylcholine-induced abdominal constriction test, which is a primary analgesic screening test designed to measure the ability of a test agent to suppress acetylcholine-induced abdominal constriction in mice, described by Collier et al., Brit. J. Pharmacol, Chemotherap. 32, 295 (1968) and the rotorod performance test, which is a test designed to measure neurotoxicity of a test compound, described by Dunham et al., J. Pharm. Sci. 46, 206-209 (1957).
(§2) The 4-arylcarbonyl-1-[(4-morpholinyl)-lower-alkyl]-1H-indoles of the invention were tested in the acetylcholine-induced abdominal constriction test (Ach), which gives a measure of antinociceptive activity, and the rotorod assay (R.R.), which gives a measure of neurotoxicity and CNS impairment. The results, expressed in terms of the ED50 's obtained on oral administration in the acetylcholine test and as the ratio of the rotorod (R.R.):Ach ED50 's, are given in the following table: […]

[2] = tested on: acetylcholine-induced abdominal constriction in mice; assay: acetylcholine-induced abdominal constriction test (Ach), antinociceptive activity; format: in vivo; conditions: for ED50: Mus musculus, oral administration
Excerpt: as §1, §2

| Structure (SMILES) | selectivity ratio [1] | ED50 [2] [mg/kg] | Ach (percent effect) ([2]; 93%/100(s.c.): at 100 (dose unit not given), s.c.) [%] |
| --- | --- | --- | --- |
| COc1ccc(C(=O)c2cccc3c2ccn3CCCN2CCOCC2)cc1.Cl [Ex. 1B, 4-(4-methoxybenzoyl)-1-[3-(4-morpholinyl)propyl]-1H-indole hydrochloride] | 2.8 | 63 | – |
| COc1ccc(C(=O)c2cccc3c2ccn3CCN2CCOCC2)cc1.Cl [Ex. 1A, 4-(4-methoxybenzoyl)-1-[2-(4-morpholinyl)ethyl]-1H-indole hydrochloride] | 3.1 | 46 | 93 |
| O=C(c1cccc2ccccc12)c1cccc2c1ccn2CCN1CCOCC1 [Ex. 1C, 1-[2-(4-morpholinyl)ethyl]-4-(1-naphthylcarbonyl)-1H-indole p-toluenesulfonate hydrate 3:1] | – | 16 | – |
